Bounds are passed on as bounds.

A word on the MIC: it is the least concentration at which growth counts as inhibited.

One test relates to Helicobacter pylori. Put plainly: activity against Helicobacter pylori (MIC), modified method of Iwahi et al., Columbia agar, growth period of 4 days. Particulars: Columbia agar (Oxoid). It is filed as cell-based. As for the experimental part: The compounds of the formula I were tested for their activity against Helicobacter pylori following a modification of the method described by Tomoyuki Iwahi et al. (Antimicrobial Agents and Chemotherapy, 1991, 490-496) using Columbia agar (Oxoid) over a growth period of 4 days. The MIC values listed in Table 2 below were found here for the tested compounds (the compound numbers shown agree with the compound numbers in the description).
Turning to `Cc1c(SCCc2ccccn2)ccnc1CSc1nc2ccccc2[nH]1` [Compound 17], the “MIC Value” is not above 1.0 µg/mL.

The test is the same for the next values; noted with them: Helicobacter pylori, 96 h, Columbia agar (Oxoid).
Regarding `Cc1c(SCCCn2ccnc2)ccnc1CSc1nc2ccccc2[nH]1` [Compound 18, 2-{[[-4-[3-(Imidazol-1-yl)propylthio]-3-methyl-2-pyridinyl]methyl]thio}-1H-benzimidazole], the MIC is not above 1 µg/mL.
Same read-out and setting: the value for `Cc1c(SCc2ccco2)ccnc1CSc1nc2ccccc2[nH]1` [Compound 1, 2-{[[4-(2-Furylmethylthio)-3-methyl,2-pyridinyl]methyl]thio}-1H-benzimidazole] was not above 1 µg/mL; that for `COc1ccnc(CSc2ccnc(CSc3nc4ccccc4[nH]3)c2C)c1OC` [Compound 16, 2-{[[4-3,4-Dimethoxy-2-pyridinylmethylthiol-3-methyl-2-pyridinyl]methyl]thio}-1H-benzimidazole] was not above 1 µg/mL.
The same measure, in the same setting: next, `Cc1c(SCc2ccco2)ccnc1CSc1nc2ccccc2[nH]1.Cl.Cl` [Compound 12, 2-{[[4-(2-Furylmethylthio)-3-methyl-2-pyridinyl]methyl]thio}-1H-benzimidazole dihydrochloride]: not above 1 µg/mL; `Cc1c(SCc2cccs2)ccnc1CSc1nc2ccccc2[nH]1` [Compound 5, 2-{[[3-Methyl-4-(2-thienylmethylthio)-2-pyridinyl]methyl]thio}-1H-benzimidazole]: not above 1 µg/mL.
Regarding `c1csc(CSc2ccnc(CSc3nc4ccccc4[nH]3)c2)c1` [Compound 8, 2-{[[4-(2-Thienylmethylthio)-2,pyridinyl]methyl]thio}-1H-benzimidazole], the MIC is not above 1 µg/mL.
On the same count and under the same terms, the value for `COc1c(SCc2ccco2)ccnc1CSc1nc2ccccc2[nH]1` [Compound 2, 2-{[[4-(2-Furylmethylthio)-3-methoxy-2-pyridinyl]methyl]thio}-1H-benzimidazole] was not above 1 µg/mL; that for `Cc1c(SCc2ccco2)ccnc1C[S+]([O-])c1nc2ccccc2[nH]1` (centres unmarked) [Compound 20, 2-{[[4-(2-Furylmethylthio)-3-methyl-2-pyridinyl]methyl]sulfinyl}-1H-benzimidazole] was not above 1 µg/mL; that for `Cc1c(SCc2ccsc2)ccnc1CSc1nc2ccccc2[nH]1` [Compound 6, 2-{[[3-Methyl-4-(3-thienylmethylthio)-2-pyridinyl]methyl]thio}-1H-benzimidazole] was not above 1 µg/mL.
Still for that read-out and setting: next, `Cc1c(SCCCn2ccnc2C)ccnc1CSc1nc2ccccc2[nH]1` [Compound 19, 2-{[[4-[3-(2-Methylimidazol-1-yl)propylthio]-3-methyl-2-pyridinyl]methyl]thio}-1H-benzimidazole]: not above 1 µg/mL.

For the origin of these results see patent US5587389A, “Substituted heteroarylaklylthiopyridines for controlling helicobacter bacteria” (BYK Gulden Lomberg Chemische Fabrik GmbH, priority 1993, dated 1996).
